According to patent US20220324835A1 (Nurix Therapeutics, Inc., priority 2018, published 2022):
Where two headings read alike, the source gives them in different places.

Key:
Format in all cases: cell-based
[1] = test system: primary human total T-cells; experiment: T-cell activation assessed by CD69 expression
Procedure, shortened: (§1)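 Primary human T-cells (>95% CD3+, negative selection from PBMC) were pre-incubated with inhibitor (e.g. 10, 1.11, 0.123 μM; DMSO <0.1%) for 1 h at 37 °C. They were then stimulated 48 h with plate-bound OKT3 (coated at 10 μg/mL), alone or with 5 μg/mL soluble anti-CD28. Results are fold change over uninhibited, identically stimulated cells.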

[2] = test system: T-cell; experiment: CD25 cell surface staining on T-cells stimulated with anti-CD3 antibody alone (Biological Example 2); settings: primary human total T-cells, baseline = anti-CD3/anti-CD28 stimulated cells without inhibitor, read-out: CD25 staining, Anti-CD3 stimulation, fold change over baseline; for fold induction at 1 µM: 1 μM compound; for fold induction at 8 µM: 8 μM compound
[3] = test system: primary human NK cells; experiment: NK cell activation assessed by cytokine secretion (coculture with K562 NucRed target cells); settings: K562, NK cells cocultured with K562 NucRed, 1:1 E/T; for fold induction at 0.625 µM: 0.625 μM compound; for fold induction at 2.5 µM: 2.5 μM compound; for fold induction at 10 µM: 10 μM compound
Procedure, shortened: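 Read-out is cytokine secretion (IFNγ, TNFα, MIP1β; ELISA or Luminex) as fold over coculture without inhibitor, >2.0-fold taken as positive. Donor NK cells, IL-2 primed (60 ng/mL) overnight, received compound 1 h ahead (e.g. 0.1–10 μM, DMSO <0.1%) and were mixed 6 h with K562 NucRed targets at e.g. 5:1, 1:1, 1:5.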

[4] = test system: primary human total T-cells; experiment: T-cell activation assessed by cytokine secretion (GM-CSF, IFNγ, TNFα)
Procedure, shortened: as §1

[5] = CD3/CD28 stimulation, CD4 T-cells, read-out: % CD69+ (CD4)
[6] = CD3/CD28 stimulation, CD8 T-cells, read-out: % CD69+ (CD8)
[7] = CD3 alone stimulation, CD4 T-cells, read-out: % CD69+ (CD4)
[8] = CD3 alone stimulation, CD8 T-cells, read-out: % CD69+ (CD8)
[9] = read-out: IFNγ secretion, fold change over baseline
[10] = read-out: TNFα secretion, fold change over baseline
[11] = CD3/CD28 stimulation, read-out: GM-CSF secretion
[12] = CD3/CD28 stimulation, read-out: IFNγ secretion
[13] = CD3/CD28 stimulation, read-out: TNFα secretion
[14] = CD3 alone stimulation, read-out: GM-CSF secretion
[15] = CD3 alone stimulation, read-out: IFNγ secretion
[16] = CD3 alone stimulation, read-out: TNFα secretion

## C[C@H](Cc1nncn1C)c1cccc(NC(=O)c2cc3cc(N4CCNCC4)ccc3cn2)c1 [Compound 472, N-{3-[(2R)-1-(4-methyl-4H-1,2,4-triazol-3-yl)propan-2-yl]phenyl}-6-(piperazin-1-yl)isoquinoline-3-carboxamide]
[1]; [5]
  fold induction at 1.11 µM: 1.2 to 1.4
  fold induction at 10 µM: 1.4 to 1.6
[1]; [6]
  fold induction at 1.11 µM: ≤ 1.2
  fold induction at 10 µM: 1.2 to 1.4
[1]; [7]
  fold induction at 1.11 µM: 1.4 to 1.6
  fold induction at 10 µM: 1.4 to 1.6
[1]; [8]
  fold induction at 1.11 µM: ≤ 1.2
  fold induction at 10 µM: 1.2 to 1.4
[2]
  fold induction at 1 µM: 0.801 to 1
  fold induction at 8 µM: 0.801 to 1
[3]; [9]
  fold induction at 0.625 µM: < 1
  fold induction at 2.5 µM: 1.01 to 2
  fold induction at 10 µM: 2.01 to 5
[3]; [10]
  fold induction at 0.625 µM: < 1
  fold induction at 2.5 µM: < 1
  fold induction at 10 µM: 1.01 to 2
[4]; [11]
  fold induction at 1.11 µM: 1.51 to 2
  fold induction at 10 µM: 2.01 to 4
[4]; [12]
  fold induction at 1.11 µM: < 2
  fold induction at 10 µM: < 2
[4]; [13]
  fold induction at 1.11 µM: 1.51 to 2
  fold induction at 10 µM: 1.51 to 2
[4]; [14]
  fold induction at 1.11 µM: 1.51 to 2
  fold induction at 10 µM: 1.51 to 2
[4]; [15]
  fold induction at 1.11 µM: < 2
  fold induction at 10 µM: < 2
[4]; [16]
  fold induction at 1.11 µM: ≤ 1.5
  fold induction at 10 µM: ≤ 1.5

## Cn1cnnc1CC1(c2cccc(N3Cc4c(cc(CN5CC(F)C5)cc4C(F)(F)F)C3=O)c2)COC1 [Compound 415, 6-((3-fluoroazetidin-1-yl)methyl)-2-(3-(3-((4-methyl-4H-1,2,4-triazol-3-yl)methyl)oxetan-3-yl)phenyl)-4-(trifluoromethyl)isoindolin-1-one]
[1]; [5]
  fold induction at 1.11 µM: 1.2 to 1.4
  fold induction at 10 µM: 1.4 to 1.6
[1]; [6]
  fold induction at 1.11 µM: 1.2 to 1.4
  fold induction at 10 µM: 1.2 to 1.4
[1]; [7]
  fold induction at 1.11 µM: > 1.6
  fold induction at 10 µM: > 1.6
[1]; [8]
  fold induction at 1.11 µM: 1.2 to 1.4
  fold induction at 10 µM: 1.4 to 1.6
[2]
  fold induction at 1 µM: > 1
  fold induction at 8 µM: > 1
[3]; [9]
  fold induction at 0.625 µM: 2.01 to 5
  fold induction at 2.5 µM: 2.01 to 5
  fold induction at 10 µM: > 5
[3]; [10]
  fold induction at 0.625 µM: 1.01 to 2
  fold induction at 2.5 µM: 2.01 to 5
  fold induction at 10 µM: 2.01 to 5
[4]; [11]
  fold induction at 1.11 µM: 2.01 to 4
  fold induction at 10 µM: > 4
[4]; [12]
  fold induction at 1.11 µM: 3.01 to 4
  fold induction at 10 µM: > 4
[4]; [13]
  fold induction at 1.11 µM: 2.01 to 4
  fold induction at 10 µM: 2.01 to 4
[4]; [14]
  fold induction at 1.11 µM: 2.01 to 4
  fold induction at 10 µM: > 4
[4]; [15]
  fold induction at 1.11 µM: 2.01 to 3
  fold induction at 10 µM: > 4
[4]; [16]
  fold induction at 1.11 µM: 1.51 to 2
  fold induction at 10 µM: 1.51 to 2

## C[C@@H](c1cc2c(c(C(F)(F)F)c1)CN(c1cccc(C3(Cc4nncn4C)COC3)c1)C2=O)N1CC[C@H](F)C1 [Compound 412, 6-((S)-1-((S)-3-fluoropyrrolidin-1-yl)ethyl)-2-(3-(3-((4-methyl-4H-1,2,4-triazol-3-yl)methyl)oxetan-3-yl)phenyl)-4-(trifluoromethyl)isoindolin-1-one]
[1]; [5]
  fold induction at 1.11 µM: 1.4 to 1.6
  fold induction at 10 µM: 1.4 to 1.6
[1]; [6]
  fold induction at 1.11 µM: 1.2 to 1.4
  fold induction at 10 µM: 1.2 to 1.4
[1]; [7]
  fold induction at 1.11 µM: > 1.6
  fold induction at 10 µM: > 1.6
[1]; [8]
  fold induction at 1.11 µM: 1.4 to 1.6
  fold induction at 10 µM: 1.4 to 1.6
[2]
  fold induction at 1 µM: > 1
  fold induction at 8 µM: > 1
[3]; [9]
  fold induction at 0.625 µM: 2.01 to 5
  fold induction at 2.5 µM: 2.01 to 5
  fold induction at 10 µM: > 5
[3]; [10]
  fold induction at 0.625 µM: 2.01 to 5
  fold induction at 2.5 µM: 2.01 to 5
  fold induction at 10 µM: 2.01 to 5
[4]; [11]
  fold induction at 1.11 µM: > 4
  fold induction at 10 µM: > 4
[4]; [12]
  fold induction at 1.11 µM: > 4
  fold induction at 10 µM: > 4
[4]; [13]
  fold induction at 1.11 µM: 2.01 to 4
  fold induction at 10 µM: > 4
[4]; [14]
  fold induction at 1.11 µM: > 4
  fold induction at 10 µM: > 4
[4]; [15]
  fold induction at 1.11 µM: 3.01 to 4
  fold induction at 10 µM: > 4
[4]; [16]
  fold induction at 1.11 µM: 1.51 to 2
  fold induction at 10 µM: 2.01 to 4

## Cn1cnnc1C(F)(F)[C@](C)(F)c1cccc(N2Cc3c(cc(CN4CC[C@@H](C#N)C4)cc3C(F)(F)F)C2=O)c1 [Compound 455, (R)-1-((3-oxo-2-(3-((R)-1,1,2-trifluoro-1-(4-methyl-4H-1,2,4-triazol-3-yl)propan-2-yl)phenyl)-7-(trifluoromethyl)isoindolin-5-yl)methyl)pyrrolidine-3-carbonitrile]
[1]; [5]
  fold induction at 1.11 µM: 1.2 to 1.4
  fold induction at 10 µM: 1.4 to 1.6
[1]; [6]
  fold induction at 1.11 µM: 1.2 to 1.4
  fold induction at 10 µM: 1.2 to 1.4
[1]; [7]
  fold induction at 1.11 µM: 1.4 to 1.6
  fold induction at 10 µM: > 1.6
[1]; [8]
  fold induction at 1.11 µM: 1.2 to 1.4
  fold induction at 10 µM: 1.4 to 1.6
[2]
  fold induction at 1 µM: 0.801 to 1
  fold induction at 8 µM: > 1
[3]; [9]
  fold induction at 0.625 µM: > 5
  fold induction at 2.5 µM: > 5
  fold induction at 10 µM: > 5
[3]; [10]
  fold induction at 0.625 µM: 1.01 to 2
  fold induction at 2.5 µM: 2.01 to 5
  fold induction at 10 µM: 2.01 to 5
[4]; [11]
  fold induction at 1.11 µM: 2.01 to 4
  fold induction at 10 µM: > 4
[4]; [12]
  fold induction at 1.11 µM: > 4
  fold induction at 10 µM: > 4
[4]; [13]
  fold induction at 1.11 µM: 2.01 to 4
  fold induction at 10 µM: 2.01 to 4
[4]; [14]
  fold induction at 1.11 µM: 1.51 to 2
  fold induction at 10 µM: 2.01 to 4
[4]; [15]
  fold induction at 1.11 µM: 2.01 to 3
  fold induction at 10 µM: 3.01 to 4
[4]; [16]
  fold induction at 1.11 µM: ≤ 1.5
  fold induction at 10 µM: 2.01 to 4

## Cn1cnnc1CC1(c2cccc(N3Cc4c(cc(CN5CCC6(CC6)C5)cc4C(F)(F)F)C3=O)c2)COC1 [Compound 520, 6-((5-azaspiro[2.4]heptan-5-yl)methyl)-2-(3-(3-((4-methyl-4H-1,2,4-triazol-3-yl)methyl)oxetan-3-yl)phenyl)-4-(trifluoromethyl)isoindolin-1-one]
[1]; [5]
  fold induction at 1.11 µM: > 1.6
  fold induction at 10 µM: > 1.6
[1]; [6]
  fold induction at 1.11 µM: 1.2 to 1.4
  fold induction at 10 µM: 1.2 to 1.4
[1]; [7]
  fold induction at 1.11 µM: > 1.6
  fold induction at 10 µM: > 1.6
[1]; [8]
  fold induction at 1.11 µM: 1.4 to 1.6
  fold induction at 10 µM: 1.4 to 1.6
[2]
  fold induction at 1 µM: > 1
[3]; [9]
  fold induction at 0.625 µM: > 5
  fold induction at 2.5 µM: > 5
  fold induction at 10 µM: > 5
[3]; [10]
  fold induction at 0.625 µM: 2.01 to 5
  fold induction at 2.5 µM: > 5
  fold induction at 10 µM: 2.01 to 5
[4]; [11]
  fold induction at 1.11 µM: > 4
  fold induction at 10 µM: > 4
[4]; [12]
  fold induction at 1.11 µM: > 4
  fold induction at 10 µM: > 4
[4]; [13]
  fold induction at 1.11 µM: 2.01 to 4
  fold induction at 10 µM: > 4
[4]; [14]
  fold induction at 1.11 µM: 2.01 to 4
  fold induction at 10 µM: > 4
[4]; [15]
  fold induction at 1.11 µM: > 4
  fold induction at 10 µM: > 4
[4]; [16]
  fold induction at 1.11 µM: 2.01 to 4
  fold induction at 10 µM: 2.01 to 4

## C[C@H](Cc1nncn1C)c1cccc(N2Cc3c(cc(CN4CC(C)(O)C4)cc3C(F)(F)F)C2=O)c1 [Compound 397]
[1]; [5]
  fold induction at 1.11 µM: 1.4 to 1.6
  fold induction at 10 µM: 1.4 to 1.6
[1]; [6]
  fold induction at 1.11 µM: 1.2 to 1.4
  fold induction at 10 µM: 1.2 to 1.4
[1]; [7]
  fold induction at 1.11 µM: > 1.6
  fold induction at 10 µM: > 1.6
[1]; [8]
  fold induction at 1.11 µM: 1.2 to 1.4
  fold induction at 10 µM: 1.4 to 1.6
[2]
  fold induction at 1 µM: > 1
  fold induction at 8 µM: > 1
[3]; [9]
  fold induction at 0.625 µM: 2.01 to 5
  fold induction at 2.5 µM: 2.01 to 5
  fold induction at 10 µM: > 5
[3]; [10]
  fold induction at 0.625 µM: 1.01 to 2
  fold induction at 2.5 µM: 2.01 to 5
  fold induction at 10 µM: 2.01 to 5
[4]; [11]
  fold induction at 1.11 µM: 2.01 to 4
  fold induction at 10 µM: > 4
[4]; [12]
  fold induction at 1.11 µM: 2.01 to 3
  fold induction at 10 µM: > 4
[4]; [13]
  fold induction at 1.11 µM: 2.01 to 4
  fold induction at 10 µM: 2.01 to 4
[4]; [14]
  fold induction at 1.11 µM: 2.01 to 4
  fold induction at 10 µM: 2.01 to 4
[4]; [15]
  fold induction at 1.11 µM: < 2
  fold induction at 10 µM: < 2
[4]; [16]
  fold induction at 1.11 µM: 1.51 to 2
  fold induction at 10 µM: 1.51 to 2
